{"source": "PubChem BioAssay AID1259409", "about": "(Chemical Carcinogenesis Research Information System (CCRIS), 2018)", "origin": "cited, not measured here", "system": "rodent chemically induced tumor inhibition, incidence and multiplicity", "test": "CCRIS tumor inhibitor studies", "conditions": "Promoter: NONE USED"}
{"smiles": "CCNC(=O)/C=C(C)/C=C/C=C(C)/C=C/c1c(C)cc(OC)c(C)c1C", "values": [{"measurement": "tumour outcome (control, treated, inhibition, significance)", "setting": "Carcinogen: N,N-DIMETHYLNITROSAMINE, 62-75-9, Dose [Inhibitor]: 60 MG/KG OF DIET DAILY FOR 26 WK STARTING 2 D AFTER CARCINOGEN TREATMENT AT 6 WK OF AGE AND THEN OBSERVED UNTIL DEATH (S, Route [Inhibitor]: ORAL, Species: RAT, Strain/Sex: WISTAR/FEMALE, Target Tissue: Type of Lesion: KIDNEY: EPITHELIAL TUMOR, Dose [Carcinogen]: 40 MG/KG BW ONCE", "value": "13/27 (48%), 21/35 (60%), -25%, not significant"}, {"measurement": "tumour outcome (control, treated, inhibition, significance)", "setting": "Carcinogen: N,N-DIMETHYLNITROSAMINE, 62-75-9, Dose [Inhibitor]: 60 MG/KG OF DIET DAILY FOR 26 WK STARTING 2 D AFTER CARCINOGEN TREATMENT AT 6 WK OF AGE AND THEN OBSERVED UNTIL DEATH (S, Route [Inhibitor]: ORAL, Species: RAT, Strain/Sex: WISTAR/FEMALE, Target Tissue: Type of Lesion: KIDNEY: MESENCHYMAL TUMOR, Dose [Carcinogen]: 40 MG/KG BW ONCE", "value": "22/27 (82%), 26/35 (74%), 10%, not significant"}, {"measurement": "tumour outcome (control, treated, inhibition, significance)", "setting": "Carcinogen: N-METHYL-N-NITROSOUREA, 684-93-5, Dose [Inhibitor]: 60 MG/KG OF DIET DAILY STARTING 5 D AFTER FINAL INSTILLATION OF CARCINOGEN AND CONTINUING THROUGH END OF STUDY (STUDY DU, Route [Inhibitor]: ORAL, Species: RAT, Strain/Sex: F344/MALE, Target Tissue: Type of Lesion: COLON: INVASIVE TUBULOPAPILLARY ADENOCARCINOMA, Dose [Carcinogen]: 0.5 MG 2/WK FOR 8 WK", "value": "33%, 19%, 42%, not significant"}, {"measurement": "tumour outcome (control, treated, inhibition, significance)", "setting": "Carcinogen: N-METHYL-N-NITROSOUREA, 684-93-5, Dose [Inhibitor]: 60 MG/KG OF DIET DAILY STARTING 5 D AFTER FINAL INSTILLATION OF CARCINOGEN AND CONTINUING THROUGH END OF STUDY (STUDY DU, Route [Inhibitor]: ORAL, Species: RAT, Strain/Sex: F344/MALE, Target Tissue: Type of Lesion: COLON: INVASIVE TUBULOPAPILLARY ADENOCARCINOMA, Dose [Carcinogen]: 1 MG 2/WK FOR 8 WK", "value": "80%, 85%, -6%, not significant"}, {"measurement": "tumour outcome (control, treated, inhibition, significance)", "setting": "Carcinogen: N-METHYL-N-NITROSOUREA, 684-93-5, Dose [Inhibitor]: 60 MG/KG OF DIET DAILY STARTING 5 D AFTER FINAL INSTILLATION OF CARCINOGEN AND CONTINUING THROUGH END OF STUDY (STUDY DU, Route [Inhibitor]: ORAL, Species: RAT, Strain/Sex: F344/MALE, Target Tissue: Type of Lesion: COLON: INVASIVE TUBULOPAPILLARY ADENOCARCINOMA, Dose [Carcinogen]: 2 MG 2/WK FOR 8 WK", "value": "95%, 100%, -5%, not significant"}]}
{"smiles": "CCCCCCC(=O)O[C@H]1CC[C@H]2[C@@H]3CCC4=CC(=O)CC[C@]4(C)[C@H]3CC[C@]12C", "values": [{"measurement": "tumour outcome (control, treated, inhibition, significance)", "setting": "Carcinogen: 7,12-DIMETHYLBENZ[A]ANTHRACENE, 57-97-6, Dose [Inhibitor]: 0, 6 MG/100 G BW 1/WK FOR 150 D BEGINNING POST CARCINOGEN TREATMENT (STUDY DURATION: 150 D), Route [Inhibitor]: SUBCUTANEOUS, Species: RAT, Strain/Sex: WISTAR/FEMALE, Target Tissue: Type of Lesion: MAMMARY GLAND: ADENOCARCINOMA, Dose [Carcinogen]: 4 MG IN 0.1 ML OF SESAME OIL INJECTED ONCE INTO THE EXPOSED MAMMARY TISSUE OF HYPERPROLACTINEMIC RATS ON DAY 73 OF AGE", "value": "8/11 (73%), 2/8 (25%), 66%, p<0.05"}]}
{"smiles": "CCCCNC(=O)/C=C(C)/C=C/C=C(C)/C=C/C1=C(C)CCCC1(C)C", "values": [{"measurement": "tumour outcome (control, treated, inhibition, significance)", "setting": "Carcinogen: N-BUTYL-N-(4-HYDROXYBUTYL)NITROSAMINE, 3817-11-6, Dose [Inhibitor]: 1.5 MMOL/KG DIET DAILY FOR 133 D STARTING ONE WK AFTER THE FINAL CARCINOGEN DOSE (STUDY DURATION: 190 D), Route [Inhibitor]: ORAL, Species: MOUSE, Strain/Sex: BDF/MALE, Target Tissue: Type of Lesion: URINARY BLADDER: TRANSITIONAL CELL CARCINOMA, Dose [Carcinogen]: 7.5 MG 1/WK FOR 8 WK", "value": "21/100 (21%), 19/100 (19%), 10%, not significant"}, {"measurement": "tumour outcome (control, treated, inhibition, significance)", "setting": "Carcinogen: N-BUTYL-N-(4-HYDROXYBUTYL)NITROSAMINE, 3817-11-6, Dose [Inhibitor]: 1.5 MMOL/KG IN DIET FOR 133 D STARTING 1 WK AFTER THE LAST CARCINOGEN DOSE (STUDY DURATION: 190 D), Route [Inhibitor]: ORAL, Species: MOUSE, Strain/Sex: DBF1/MALE, Target Tissue: Type of Lesion: URINARY BLADDER: TRANSITIONAL CELL CARCINOMA, Dose [Carcinogen]: 7.5 MG 1/WK FOR 8 WK", "value": "21/100 (21%), 19/100 (19%), 10%, not significant"}]}
